Reference: ChEMBL document CHEMBL1155206, “Synthesis and in vitro evaluation of 2,4-diamino-1,3,5-triazine derivatives as neuronal voltage-gated sodium channel blockers” (Bioorg Med Chem Lett, 2009)

Key:
[1] = Displacement of [3H]BTX-B from neurotoxin site 2 of voltage gated sodium channel in rat cerebral cortex synaptoneurosomes after 30 mins by scintillation counting; assay type: tissue-based
Dihydrofolate reductase = biological target: T1, Dihydrofolate reductase (Bos taurus, UniProt P00376); assay: Inhibition of bovine liver DHFR assessed as NADPH consumption during conversion of dihydrofolic acid to tetrahydrofolic acid
T1 sequence (P00376 whole entry): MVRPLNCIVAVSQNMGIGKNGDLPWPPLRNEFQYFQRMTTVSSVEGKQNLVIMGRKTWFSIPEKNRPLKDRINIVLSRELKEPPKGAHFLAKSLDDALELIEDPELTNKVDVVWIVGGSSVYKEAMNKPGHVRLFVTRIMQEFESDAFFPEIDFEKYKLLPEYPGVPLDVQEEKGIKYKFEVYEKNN

SMILES | IC50 [1] [µM] | IC50 (Dihydrofolate reductase) [µM]
Cc1cccc(NC2=NC(N)=NC(C)(C)N2)c1 | 186 | > 100
CC1(C)N=C(N)N=C(Nc2cccc(Br)c2)N1 | 12.6 | > 100
Cc1nc(N)nc(Nc2cccc(Cl)c2)n1 | 246 | > 100
CC1(C)N=C(N)N=C(Nc2ccccc2)N1 | 259 | > 100
NC1=NC2(CCCCC2)N(c2ccccc2Cl)C(N)=N1 | 13 | > 100
Cc1ccccc1NC1=NC(N)=NC(C)(C)N1 | 582 | > 100
NC1=NC2(CCCCC2)N(c2ccccc2)C(N)=N1 | 14.7 | > 100
COc1cccc(NC2=NC(N)=NC(C)(C)N2)c1 | 76.2 | > 100
CC1(C)N=C(N)N=C(Nc2ccccc2Cl)N1 | 85.5 | > 100
CC1(C)N=C(N)N=C(Nc2ccccc2Br)N1 | 57.5 | > 100
Cc1ccc(N2C(N)=NC(N)=NC23CCCCC3)cc1 | 4.2 | > 100
COc1ccccc1NC1=NC(N)=NC(C)(C)N1 | 343 | > 100
O=C1NC(=O)C(c2ccccc2)(c2ccccc2)N1 [PHENYTOIN] | 126 | > 100
Nc1nc(CCl)nc(Nc2cccc([N+](=O)[O-])c2)n1 | 190 | > 100
Nc1nc(CCl)nc(Nc2ccc(Cl)c(Cl)c2)n1 | 168 | > 100
Cc1ccccc1N1C(N)=NC(N)=NC12CCCCC2 | 9.1 | > 100
CC1(C)N=C(N)N=C(N)N1Cc1ccccc1 | 53.2 | 19.5
Cc1cccc(N2C(N)=NC(N)=NC23CCCCC3)c1 | 4.7 | > 100

SMILES | IC50 [1] [µM] | IC50 (Dihydrofolate reductase) [µM]
Nc1nc(CCl)nc(Nc2cccc(Br)c2)n1 | 172 | > 100
CC1(C)N=C(N)NC(Nc2ccc(Br)cc2)=N1 | 18.4 | > 100
CC1(C)N=C(N)N=C(Nc2cccc(Cl)c2)N1 | 16.5 | > 100
Cc1ccc(NC2=NC(N)=NC(C)(C)N2)cc1 | 71.5 | > 100
COc1ccc(CN2C(N)=NC(N)=NC2(C)C)cc1 | 59.8 | 58.8
CC1(C)N=C(N)N=C(N)N1Cc1ccc(Cl)c(Cl)c1 | 19 | 12.8
COc1cccc(N2C(N)=NC(N)=NC23CCCCC3)c1 | 5.1 | > 100
Cc1ccc(CN2C(N)=NC(N)=NC2(C)C)cc1 | 32.2 | 24.6
CC1(C)N=C(N)N=C(Nc2ccc(Cl)cc2)N1 | 24.7 | > 100
COc1ccccc1N1C(N)=NC(N)=NC12CCCCC2 | 12.3 | > 100
COc1ccc(N2C(N)=NC(N)=NC23CCCCC3)cc1 | 7.8 | > 100
Cc1nc(N)nc(Nc2ccc(Cl)c(Cl)c2)n1 | 274 | > 100
CC1(C)N=C(N)N=C(N)N1Cc1ccc(Cl)cc1 | 35.3 | 29.9
NC1=NC2(CCCCC2)N(c2cccc(Cl)c2)C(N)=N1 | 4 | > 100
Cc1nc(N)nc(Nc2cccc(Br)c2)n1 | 198 | > 100
NC1=NC2(CCCCC2)N(c2ccc(Cl)cc2)C(N)=N1 | 4.4 | > 100
COc1ccc(NC2=NC(N)=NC(C)(C)N2)cc1 | 207 | > 100
